Measurements published in US20030134859A1 (SANKYO COMPANY, LIMITED, priority 2000, published 2003).

How the values were obtained:
[1] = system: Mouse preadipocyte strain 3T3-L1; assay: Inhibition of differentiation as an indication of acetic acid uptake; type: cell-based; settings: Mus musculus, 3T3-L1, 0.1 μM test substance, control (0.01% dimethylsulfoxide) = 100%, read-out: Rate of Uptake (%) of [2-14C] acetic acid
Method in brief: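 Differentiation is indexed by 1 hr [2-14C]acetic acid incorporation, measured by scintillation counting and given as uptake relative to 0.01% DMSO control (100%). Mouse 3T3-L1 preadipocytes, pre-grown 10 days, received 0.1 μM test substance throughout a 4-day insulin/IBMX/dexamethasone induction, followed by 2 days' maintenance culture.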

[2] = system: human colon cancer cells COL-2-JCK; assay: Inhibition of colony forming activity in human colon cancer cells; type: cell-based; settings: Homo sapiens, 240 h; 1 μM test compound; 10 days; sum of colony areas vs control; read-out: Inhibition Rate (%) against the colony forming activity
Method in brief: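 COL-2-JCK cells seeded at 300 cells/well and grown 10 days at 37 °C, 5% CO2 with compound at 1 μM final (0.1% DMSO). Colonies stained with crystal violet in formalin; inhibition % = (1 − treated/control colony area)×100.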

Structure (SMILES) | activity at 0.1 µM [1] | inhibition at 1 µM [2]
Cc1csc(NC(=O)c2cc([N+](=O)[O-])ccc2Cl)n1 [Example 3, N-(4-Methylthiazol-2-yl)-(2-chloro-5-nitrophenyl)carboxamide] | 68.9% | 27%
O=C(Nc1nc2ccc(Cc3ccc(F)cc3)cc2s1)c1cc([N+](=O)[O-])ccc1Cl [Example 90, N-[6-(4-Fluorobenzyl)benzothiazol-2-yl]-(2-chloro-5-nitrophenyl)carboxamide] | 60.5% | 47%
